Source: US12391733B2, “Stapled intracellular-targeting antimicrobial peptides to treat infection” (priority 2016, dated 2025)
Where two headings read alike, the source gives them in different places. Positions of bridges follow the written chain, without caps; N, C: chain ends. Non-standard residues stand in square brackets, D forms with d. Residues, ends and D or L forms follow the SMILES beside them. R8 = C=CCCCCCC[C@@](C)(N)C(=O)O; S5 = C=CCCC[C@](C)(N)C(=O)O

Legend:
circular dichroism = details: 10 mM phosphate buffer; pH 7.4; ns °C; 100 uM
E. coli = type: cell-based, Escherichia coli; details: for Antimicrobial Activity NIC (μg/ml) E. coli: Table 1, microbroth dilution, refined MHB, 20-24 hours at 37° C.
Description: (§1) Antimicrobial Activity Assay The following microbroth dilution protocol was adapted to determine the MIC of each peptide. First, Mueller-Hinton broth (MHB) was passed through an anion exchange column to remove polyanionic species and generate refined MHB. This refined broth was then used in the standard microbroth dilution protocol devised by Hancock et al. for 96 well plates. […] Briefly, bacterial cells were grown overnight in refined MHB at 37° C. and then diluted and allowed to grow again for several hours. Serial dilutions of peptide stocks in water (10 μl) were prepared using clear round-bottom polypropylene 96-well plates. Then 90 μl of bacteria in refined MHB was added to give a final inoculum of 5×10^5 CFU/ml. The plates were then covered with porous tape to reduce evaporation, and incubated for 20-24 hours at 37° C.

B. cereus = type: cell-based
Description: as §1

MRSA = type: cell-based
Description: as §1

P. aeruginosa = type: cell-based
Description: as §1

S. Aureus = type: cell-based
Description: as §1

[1] = test system: human red blood cells (RBCs); type: cell-based; details: for % Hemolysis at 50 μg/ml: red cells of human, 1 h
From the text: One of the key obstacles that have long impeded the use of AMPs in systemic infections such as sepsis is their tendency to lyse human cells, such as red blood cells (RBCs). Thus, it is critical to minimize hemolytic activity as much as possible to achieve a therapeutic window. […] Of note, in those circumstances where hydrocarbon staples increase hemolytic activity due to increasing hydrophobicity, the alkene moiety can be modified, e.g., by dihydroxylation, to install hydrophilic residues and potentially mitigate hemolysis.
Hemolytic Activity Assay For the determination of hemolytic activity, the following protocol was applied: human blood samples were centrifuged to isolate red blood cells (RBCs), which were then washed and suspended in phosphate-buffered saline to yield a 1% (v/v) suspension. This suspension was then added to serial dilutions of peptide stocks in water in clear round-bottom polypropylene 96-well plates and the plates incubated for 1 hour at 37° C. After incubation, the plates were centrifuged and the supernatant isolated to determine the amount of hemoglobin released using a spectrophotometer (570 nm). The minimum hemolytic concentration (MHC) was determined by assessing the peptide concentration at which there was less than 1% hemoglobin release.

| Structure (SMILES) | helicity (circular dichroism) [%] | % Hemolysis at 50 μg/ml [1] [%] | Antimicrobial Activity NIC (μg/ml) E. coli (E. coli) [µg/mL] | also measured |
| --- | --- | --- | --- | --- |
| CC(C)C[C@H](NC(=O)[C@H](CC(C)C)NC(=O)[C@H](CCCNC(=N)N)NC(=O)[C@H](Cc1c[nH]cn1)NC(=O)[C@@H](NC(=O)[C@H](CCCNC(=N)N)NC(=O)CNC(=O)[C@@H](NC(=O)[C@@H]1CCCN1C(=O)[C@H](Cc1c[nH]c2ccccc12)NC(=O)[C@H](CCC(N)=O)NC(=O)[C@H](CC(C)C)NC(=O)[C@]1(C)CCCC=CCCC[C@](C)(NC(=O)[C@H](CCCNC(=N)N)NC(=O)[C@@H](N)[C@@H](C)O)C(=O)N[C@@H](CO)C(=O)N[C@@H](CCCNC(=N)N)C(=O)N[C@@H](C)C(=O)N1)C(C)C)C(C)C)C(=O)N[C@@H](CCCNC(=N)N)C(=O)N[C@@H](CCCCN)C(N)=O [BFStap(i + 4)11] (H-TR[S5]SRA[S5]LQWPVGRVHRLLRK-NH2; staple 3-7) | 8 | 3.1 | – | Antimicrobial Activity MIC (μg/ml) E. coli (E. coli; Table 2): 6.25 µg/mL; Antimicrobial Activity MIC (μg/ml) B. cereus (B. cereus; Table 2): 25 µg/mL; Antimicrobial Activity MIC (μg/ml) MRSA (MRSA; Table 2): >50 µg/mL; Antimicrobial Activity MIC (μg/ml) P. aeruginosa (P. aeruginosa; Table 2): 12.5 µg/mL; Antimicrobial Activity MIC (μg/ml) S. Aureus (S. Aureus; Table 2): 50 µg/mL; hemolytic activity (in words) [1]: low hemolytic activity |
| CC(C)C[C@H](NC(=O)CNC(=O)[C@H](C)NC(=O)[C@H](CCCNC(=N)N)NC(=O)[C@H](CO)NC(=O)[C@H](CO)NC(=O)[C@H](CCCNC(=N)N)NC(=O)[C@@H](N)[C@@H](C)O)C(=O)N[C@]1(C)CCCCCCC=CCCC[C@@](C)(C(=O)N[C@@H](CCCNC(=N)N)C(=O)N[C@@H](CC(C)C)C(=O)N[C@@H](CC(C)C)C(=O)N[C@@H](CCCNC(=N)N)C(=O)N[C@@H](CCCCN)C(N)=O)NC(=O)[C@H](C(C)C)NC(=O)[C@H](CCCNC(=N)N)NC(=O)CNC(=O)[C@H](C(C)C)NC(=O)[C@@H]2CCCN2C(=O)[C@H](Cc2c[nH]c3ccccc23)NC1=O [BFStap(i + 7)4] (H-TRSSRAGL[R8]WPVGRV[S5]RLLRK-NH2; staple 9-16; N-terminus and C-terminus assumed) | 2.4 | 57.0 | 3.1 | – |
| CC(C)C[C@H](NC(=O)[C@H](CC(C)C)NC(=O)[C@H](CCCNC(=N)N)NC(=O)[C@H](Cc1c[nH]cn1)NC(=O)[C@@H](NC(=O)[C@]1(C)CCCC=CCCCCCC[C@@](C)(NC(=O)[C@H](C)NC(=O)[C@H](CCCNC(=N)N)NC(=O)[C@H](CO)NC(=O)[C@H](CO)NC(=O)[C@H](CCCNC(=N)N)NC(=O)[C@@H](N)[C@@H](C)O)C(=O)N[C@@H](CC(C)C)C(=O)N[C@@H](CCC(N)=O)C(=O)N[C@@H](Cc2c[nH]c3ccccc23)C(=O)N2CCC[C@H]2C(=O)N[C@@H](C(C)C)C(=O)NCC(=O)N1)C(C)C)C(=O)N[C@@H](CCCNC(=N)N)C(=O)N[C@@H](CCCCN)C(N)=O [BFStap(i + 7)6] (H-TRSSRA[R8]LQWPVG[S5]VHRLLRK-NH2; staple 7-14) | 7.3 | 9.5 | – | Antimicrobial Activity MIC (μg/ml) E. coli (E. coli): 6.25 µg/mL; Antimicrobial Activity MIC (μg/ml) B. cereus (B. cereus): 12.5 µg/mL; Antimicrobial Activity MIC (μg/ml) MRSA (MRSA): >50 µg/mL; Antimicrobial Activity MIC (μg/ml) P. aeruginosa (P. aeruginosa): 12.5 µg/mL; Antimicrobial Activity MIC (μg/ml) S. Aureus (S. Aureus): 25 µg/mL |
| CC(C)C[C@@H]1NC(=O)CNC(=O)[C@](C)(NC(=O)[C@H](CCCNC(=N)N)NC(=O)[C@H](CO)NC(=O)[C@H](CO)NC(=O)[C@H](CCCNC(=N)N)NC(=O)[C@@H](N)[C@@H](C)O)CCCCCCC=CCCC[C@@](C)(C(=O)N[C@@H](CCCNC(=N)N)C(=O)N[C@H](C(=O)N[C@@H](Cc2c[nH]cn2)C(=O)N[C@@H](CCCNC(=N)N)C(=O)N[C@@H](CC(C)C)C(=O)N[C@@H](CC(C)C)C(=O)N[C@@H](CCCNC(=N)N)C(=O)N[C@@H](CCCCN)C(N)=O)C(C)C)NC(=O)[C@H](C(C)C)NC(=O)[C@@H]2CCCN2C(=O)[C@H](Cc2c[nH]c3ccccc23)NC(=O)[C@H](CCC(N)=O)NC1=O [BFStap(i + 7)7] (H-TRSSR[R8]GLQWPV[S5]RVHRLLRK-NH2; staple 6-13; N-terminus and C-terminus assumed) | 11.6 | 3.0 | 22.9 | – |
| CC(C)C[C@@H]1NC(=O)CNC(=O)[C@H](C)NC(=O)[C@H](CCCNC(=N)N)NC(=O)[C@H](CO)NC(=O)[C@H](CO)NC(=O)[C@](C)(NC(=O)[C@@H](N)[C@@H](C)O)CCCCCCC=CCCC[C@@](C)(C(=O)N[C@@H](Cc2c[nH]c3ccccc23)C(=O)N2CCC[C@H]2C(=O)N[C@H](C(=O)NCC(=O)N[C@@H](CCCNC(=N)N)C(=O)N[C@H](C(=O)N[C@@H](Cc2c[nH]cn2)C(=O)N[C@@H](CCCNC(=N)N)C(=O)N[C@@H](CC(C)C)C(=O)N[C@@H](CC(C)C)C(=O)N[C@@H](CCCNC(=N)N)C(=O)N[C@@H](CCCCN)C(N)=O)C(C)C)C(C)C)NC1=O [BFStap(i + 7)9] (H-T[R8]SSRAGL[S5]WPVGRVHRLLRK-NH2; staple 2-9; N-terminus and C-terminus assumed) | 0 | 4.3 | 41.7 | – |
| CC(C)C[C@H](NC(=O)[C@H](CC(C)C)NC(=O)[C@H](CCCNC(=N)N)NC(=O)[C@H](Cc1c[nH]cn1)NC(=O)[C@@H](NC(=O)[C@H](CCCNC(=N)N)NC(=O)CNC(=O)[C@@H](NC(=O)[C@@H]1CCCN1C(=O)[C@H](Cc1c[nH]c2ccccc12)NC(=O)[C@H](CCC(N)=O)NC(=O)[C@]1(C)CCCC=CCCCCCC[C@@](C)(N)C(=O)N[C@@H](CCCNC(=N)N)C(=O)N[C@@H](CO)C(=O)N[C@@H](CO)C(=O)N[C@@H](CCCNC(=N)N)C(=O)N[C@@H](C)C(=O)NCC(=O)N1)C(C)C)C(C)C)C(=O)N[C@@H](CCCNC(=N)N)C(=O)N[C@@H](CCCCN)C(N)=O [BFStap(i + 7)10] (H-[R8]RSSRAG[S5]QWPVGRVHRLLRK-NH2; staple 1-8) | 0 | 2.3 | >100 | – |
